Measured values: paper PMC9968064, “First Synthesis of DBU-Conjugated Cationic Carbohydrate Derivatives and Investigation of Their Antibacterial and Antifungal Activity” (International Journal of Molecular Sciences, 2023)
Entries after “also recorded” stand apart in the source; their conditions may differ. Read-outs that look alike come from different tables or passages of the source.

Legend:
[1] = test system: Escherichia coli (ATCC 8739); test: MIC determination (antibacterial susceptibility test, CLSI / Hungarian Pharmacopeia); assay type: cell-based; details: for MIC: Escherichia coli, ATCC8739, tested range 6.25–100 µg/mL; for MIC Escherichia coli (ATCC 8739): tested range 6.25–100 µg/mL
Protocol: (§1) The antimicrobial activity of twenty-two cationic hexopyranoside-amidinium salts (3, 10, 11, 12, 21, 22, 23, 24, 29, 30, 32, 37, 38, 45, 46, 47, 48, 49, 50, 51, 52 and 53) were compared in susceptibility tests (Table 2). The effectiveness of all compounds was tested on Staphylococcus aureus ssp. aureus (ATCC 6538), Escherichia coli (ATCC 8739) and Candida albicans (ATCC 10231). We tested the antimicrobial activity of the compounds at the concentration range of 6.25–100 µg/mL.
(§2) The detection of the antibacterial and antifungal effects of the tested compounds and the determination of the minimum inhibitory concentration (MIC) were carried out based on the method of CLSI [48] and Hungarian Pharmacopeia (chapters VIII. 2.6.12–13.).
(§3) For the antimicrobial studies, we used three human pathogens as test organisms: Candida albicans (ATCC 10231), Staphylococcus aureus subspecies aureus (ATCC 6538) and Escherichia coli (ATCC 8739).
(§4) Staphylococcus aureus subspecies aureus and Escherichia coli were cultured on tryptic soya agar (TSA) for 18–24 h at 37 °C. Candida albicans was cultured on Sabouraud dextrose agar (SDA) for 18–24 h at 37 °C. To obtain cells for suspension, we made cell suspensions from Staph. aureus, E. coli and C. albicans with the cotton swab suspension technique. The dilution of suspension was then made with 0.85% NaCl solution, absorbance being set to A600nm = 0.06. a volume of 10 μL of these suspensions contained ~4.5–6.0 × 10^4 colony forming unit (CFU) (bacteria) and ~1.5–2.0 × 10^3 CFU for yeast.
(§5) Tested agents were diluted with DMSO; the concentration of stock solutions was 4 mg/mL; and to ensure sterility, the closed sample containers were incubated at 35 °C for 1 h. The highest final concentration was 100 μg/mL.
(§6) Testing was performed in 24-well plates, and cell suspensions were prepared with 0.85% NaCl solution. Stock solutions were made from the agents with DMSO (100%). Final concentrations of used compounds were 6.25–100 µg/mL. […] After inoculation, plates were incubated at 35 °C, and results were then read visually after 18–24 h. If microbial growth could not be detected, results were read visually after 72 h. If there was no growth after 72 h, incubation was continued till the fifth day of the experiment and the results were read visually and with plate reader at 600 nm after 120 h.
(§7) The MIC value of a compound was defined as the minimal concentration that inhibits the growth of bacteria and yeasts comparing to the control. The results of the antibacterial and antifungal tests were read visually after 24, 48, 72 and 120 h. The microbial growth was measured by plate reader at 600 nm after 120 h.

[2] = test system: Staphylococcus aureus ssp. aureus (ATCC 6538); test: as above; assay type: cell-based; details: for MIC: Staphylococcus aureus, ATCC6538, tested range 6.25–100 µg/mL; for MIC Staphylococcus aureus (ATCC 6538): tested range 6.25–100 µg/mL
Protocol: as §1, §2, §3, §4, §5, §6, §7

[3] = test system: Candida albicans (ATCC 10231); test: MIC determination (antifungal susceptibility test); assay type: cell-based; details: Candida albicans
Protocol: as §1, §2, §3, §4, §5
as §6, with “Final concentrations of used compounds were 6.25–100 µg/mL.” left out
as §7

[4] = test system: HaCaT (human keratinocyte) cell line; test: MTT viability test on HaCaT cells; assay type: cell-based; details: 24 h; for IC50: Homo sapiens, HaCaT, 50–3.125 µg/mL
Protocol: The cytotoxic effect of six selected compounds (3, 10, 12, 21, 22 and 29) with promising antimicrobial activity was studied on HaCaT (human keratinocyte) cell lines. Using the MTT-test, we determined the viability of the cells (Figure 3), and the half maximal inhibitory concentration (IC50) values of the compounds are summarized in Table 4. The duration of tests was 24 h; the examined concentrations were: 50–25–12.5–6.25–3.125 µg/mL. The IC50 value of a compound was defined as the concentration that inhibits cell growth by 50% relative to the control. […], the medium containing the inhibitor was removed, and 10 μL MTT solution was added to the cells. The plates were then incubated for two hours at 37 °C. The medium from the wells was then carefully aspirated, and MTT formazan dissolved with 100 μL of DMSO aided by gentle agitation on a shaker. After 10 min at room temperature, the absorbances were read at 570 nm by an automatic plate reader. The percentage of viability reflecting the respiratory potential of the cell population in each well was expressed as (absorbance of treated cells/absorbance of control cells) × 100. IC50 values of tested agents were determined by Graphpad (Prism) semi-log line fitting (graphpad.com (8)). The MTT test was performed after treatment and removal of inhibitors followed by the addition of 10 μL of MTT solution to the cells. We tested the toxic effect of compounds 3, 10, 12, 21, 22 and 29 on HaCaT cell line. HaCaT is a spontaneously transformed, aneuploid keratinocyte, an adherent cell type derived from the epithelium of Human […] adult skin. The cell line was immortalized in 1986 under low calcium and high-temperature conditions. Cells were cultured in DMEM medium (iBiotech, Szigetszentmiklós, Hungary) containing 10% fetal bovine serum (FBS, iBiotech, Szigetszentmiklós, Hungary) and 1% antibiotic-antimycotic mix (Penicillin–Streptomycin–Neomycin).

rat red blood cells = test: Hemolytic activity on rat red blood cells; assay type: cell-based, Sprague-Dawley rat; details: 15 min, 37 °C
Protocol: The hemolytic activity of compounds 10 and 22 was determined on freshly isolated rat red blood cells (Figure 4).
Blood was collected from a Sprague-Dawley rat into an EDTA tube. Erythrocytes were separated from blood by centrifugation at 1800 rpm for 8 min, washed 3 times with phosphate buffered saline (PBS), and resuspended in PBS. Aliquots of the cell suspension with the respective red blood cell number of 7 × 10^7 were added to PBS containing increasing concentrations of the test compounds or the vehicle DMSO. After gently mixing, each mixture was incubated at 37 °C for 15 min. The released hemoglobin into the supernatant was separated by a rapid centrifugation at 5000 rpm for 5 min. Finally, the absorbance of the released hemoglobin was measured at 540 nm using a Multiskan Go (ThermoFisher, Waltham, MA, USA) microplate reader. The absorbance values were compared to the absorbance of the sample kept in purified water during the incubation as positive control and given as percent hemolysis.

[5] = test system: Lactobacillus plantarum subsp. plantarum (ATCC 14917); test: Membrane permeabilization by SYTOX green staining; assay type: cell-based; details: 6.25 µg/mL
Protocol: In membrane permeabilization experiments, the Gram-positive Lactobacillus plantarum was used to test the effect of compounds 10 and 22 at 6.25 µg/mL for 48 h. Bacterial cells were stained with SYTOX green (SG) fluorescent dye, which is impermeable on intact membranes but easily penetrates through compromised membranes.
Lactobacillus plantarum subsp. plantarum (ATCC 14917) was purchased from ATCC (Manassas, VA, USA). The membrane permeabilization ability of compounds 10 and 22 was tested on L. plantarum and determined in the brain heart infusion medium (BHI) (CliniChem Ltd., Budapest, Hungary). Bacterial cells were treated with the test compounds at the final concentration of 6.25 µg/mL and samples were taken at 1, 4, 8, 24 and 48 h. Samples were stained with SYTOX green fluorescent dye (ThermoFischer Scientific, Budapest, Hungary) at 1 µM final concentration for 30 min at 37 °C, and flow cytometric measurements were carried out with a Guava Easy Cyte 6HT-2L flow cytometer (Merck Ltd., Darmstadt, Germany). Green (525/30 nm) and red (695/50 nm) fluorescence channels were used to gate out the cells on a green versus red dot plot. The ratio of the SYTOX green (SG) positive bacterial cells was evaluated.

[6] = ATCC10231, 10× diluted, tested range 0.625–10.0 µg/mL, read-out: MIC Candida albicans (ATCC 10231), lower concentrations
[7] = ATCC10231, tested range 6.25–100 µg/mL, read-out: MIC Candida albicans (ATCC 10231)

SMILES	MIC [1]	MIC [2]	MIC Staphylococcus aureus (ATCC 6538) [2]	MIC [3, 6]	MIC [3, 7]	MIC Escherichia coli (ATCC 8739) [1]	cytotoxic effect on HaCaT cells (in words) [4]	IC50 [4]	effect on HaCaT cell viability at antibacterially and antifungally active concentrations ([4]; ≤6.25 µg/mL)	hemolysis compared to negative control PBS (rat red blood cells; 6.25 µg/mL)	hemolysis (haemoglobin release) (rat red blood cells; 50 and 100 µg/mL, comparable to water positive control)	membrane permeabilization (cellular fluorescence of SYTOX green) ([5]; Figure 5)	ratio of SYTOX green (SG) positive cells ([5]; after 1 h of incubation)	ratio of SYTOX green (SG) positive cells ([5]; after 4 h of incubation)
CO[C@H]1O[C@H](C[N+]2=C3CCCCCN3CCC2)[C@@H](OCc2ccccc2)[C@H](OC(=O)c2ccccc2)[C@H]1OC(=O)c1ccccc1 [Compound 3, 8-N-[methyl 6-deoxy-6-yl-2,3-di-O-benzoyl-4-O-benzyl-α-D-glucopyranoside]-1,8-diazabicyclo(5.4.0)undec-7-ene-iodide]	> 100 µg/mL	6.25 to 50 µg/mL					strongest cytotoxic effect	0.13 ± 0.06 µg/mL						
CCS[C@H]1O[C@H](C[N+]2=C3CCCCCN3CCC2)[C@@H](OCc2ccc3ccccc3c2)[C@H](O)[C@H]1O [Compound 46, 8-N-[ethyl 6-deoxy-6-yl-4-O-(2′-naphthyl)methyl-1-thio-α-D-glucopyranoside]-1,8-diazabicyclo(5.4.0)undec-7-ene-chloride]	> 100 µg/mL	> 100 µg/mL	>100 µg/mL		> 100 µg/mL	>100 µg/mL								
CO[C@H]1O[C@H](C[N+]2=C3CCCCCN3CCC2)[C@@H](OCc2ccccc2)[C@H](O)[C@H]1O [Compound 45, 8-N-[methyl 6-deoxy-6-yl-4-O-benzyl-α-D-glucopyranoside]-1,8-diazabicyclo(5.4.0)undec-7-ene-chloride]	> 100 µg/mL	> 100 µg/mL	>100 µg/mL		> 100 µg/mL	>100 µg/mL								
CCS[C@H]1O[C@H](C[N+]23CCN(CC2)CC3)[C@@H](OCc2ccc3ccccc3c2)[C@@H](OC(=O)c2ccccc2)[C@H]1OC(=O)c1ccccc1 [Compound 32]	≥ 100 µg/mL	6.25 to 50 µg/mL			> 100 µg/mL									
CCS[C@H]1O[C@H](C[N+]2=C3CCCCCN3CCC2)[C@@H](O)[C@H](O)[C@H]1O [Compound 47, 8-N-[ethyl 6-deoxy-6-yl-1-thio-α-D-glucopyranoside]-1,8-diazabicyclo(5.4.0)undec-7-ene-chloride]	> 100 µg/mL	> 100 µg/mL	>100 µg/mL		> 100 µg/mL	>100 µg/mL								

More lines, main results first:

MIC [1]	MIC [2]	MIC Staphylococcus aureus (ATCC 6538) [2]	MIC [3, 6]	MIC [3, 7]	MIC Escherichia coli (ATCC 8739) [1]	SMILES	cytotoxic effect on HaCaT cells (in words) [4]	IC50 [4]	effect on HaCaT cell viability at antibacterially and antifungally active concentrations ([4]; ≤6.25 µg/mL)	hemolysis compared to negative control PBS (rat red blood cells; 6.25 µg/mL)	hemolysis (haemoglobin release) (rat red blood cells; 50 and 100 µg/mL, comparable to water positive control)	membrane permeabilization (cellular fluorescence of SYTOX green) ([5]; Figure 5)	ratio of SYTOX green (SG) positive cells ([5]; after 1 h of incubation)	ratio of SYTOX green (SG) positive cells ([5]; after 4 h of incubation)
> 100 µg/mL	6.25 to 50 µg/mL	<12.5 µg/mL	2.5 µg/mL	< 6.25 µg/mL		CCS[C@H]1O[C@H](C[N+]2=C3CCCCCN3CCC2)[C@@H](OCc2ccc3ccccc3c2)[C@@H](OCc2ccccc2)[C@H]1OCc1ccccc1 [Compound 29]	only slight cytotoxicity; also recorded: greatly reduced toxicity	11.9 ± 0.25 µg/mL						
> 100 µg/mL	6.25 to 50 µg/mL					c1ccc(CO[C@H]2[C@@H](OCc3ccc4ccccc4c3)[C@H](OCc3ccccc3)[C@@H](C[N+]3=C4CCCCCN4CCC3)O[C@@H]2Sc2ccccc2)cc1 [Compound 21]	significant toxic effect; also recorded: cytotoxic	1.02 ± 0.06 µg/mL						
≥ 100 µg/mL	< 6.25 µg/mL		2.5 µg/mL	< 6.25 µg/mL		c1ccc(CO[C@@H]2[C@H](OCc3ccccc3)[C@@H](Sc3ccccc3)O[C@H](C[N+]3=C4CCCCCN4CCC3)[C@H]2OCc2ccc3ccccc3c2)cc1 [Compound 22]	only slight cytotoxicity; also recorded: greatly reduced toxicity	10.3 ± 0.41 µg/mL	hardly affected the cell viability	did not cause significant hemolysis	significantly increased the hemolysis; also recorded: significant haemoglobin release	increased membrane permeabilization	increased the ratio of SG-positive cells	drastically increased
> 100 µg/mL	< 6.25 µg/mL					CCS[C@H]1O[C@H](C[N+]2=C3CCCCCN3CCC2)[C@@H](OCc2ccc3ccccc3c2)[C@H](OC(=O)c2ccccc2)[C@H]1OCc1ccccc1 [Compound 12]	significant toxic effect; also recorded: cytotoxic	4.26 ± 0.16 µg/mL						
